{"source": "paper PMC9019100", "about": "“Development of NanoLuc-targeting protein degraders and a universal reporter system to benchmark tag-targeted degradation platforms” (Nature Communications, 2022)", "key": {"[1]": {"biological_target": "recombinant NanoLuc enzyme (Oplophorus gracilirostris, UniProt Q9GV45, A31E/A60N/A81I/F95D/I117V/K70R/L54V/L99Q/M102K/N193R/P142E/Q151K/Q38R/Q45L/V71I/Y165I)", "sequence (Q9GV45 other isoform, or with tags, fused parts or gaps with the stated changes)": "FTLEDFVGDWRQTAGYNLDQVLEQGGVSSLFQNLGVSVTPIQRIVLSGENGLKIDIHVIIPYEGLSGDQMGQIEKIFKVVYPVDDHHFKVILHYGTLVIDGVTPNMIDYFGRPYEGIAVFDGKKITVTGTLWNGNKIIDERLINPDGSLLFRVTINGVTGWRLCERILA", "format": "biochemical"}, "[2]": {"biological_target": "T1, Halo-EGFP-NanoLuc-FKBP^F36V (H-E-N-F) fusion protein (UniProt P0A3G2+P62942+Q9GV45, A155T/A167V/A172T/A224E/A31E/A60N/A81I/C128F/C176G/D78G/E160K/E257K/F37V/F95D/H272N/I117V/K175M/K195N/K70R/L47V/L54V/L88M/L99Q/M102K/N193R/N227D/P142E/P291S/Q151K/Q38R/Q45L/S2A/S58T/T264A/V71I/Y165I/Y273L/Y87F)", "format": "cell-based", "conditions": "replicate wells; for Blank corrected Raw Data (470-80): +dox, PROTAC 500nM"}, "[3]": {"biological_target": "T1, Halo-EGFP-NanoLuc-FKBP^F36V (H-E-N-F) fusion protein", "format": "cell-based", "conditions": "5 h"}, "[4]": {"tested_on": "MLKL^−/− HT29 cells expressing untagged MLKL", "format": "cell-based", "conditions": "MLKL-/- + MLKL, independent experiments", "description": "Cell death was assessed by flow cytometric analysis of PI exclusion. […] Cell death was assessed by flow cytometric analysis of PI exclusion. […] Cell death was assessed by flow cytometric analysis of PI exclusion. e N = 4, f N = 3 independent experiments (symbols), EB represent mean ± SD. g Western from MLKL^−/−CASP8^−/− HT29 cells stably expressing the doxycycline-inducible C-terminal fusion protein, MLKL-NanoLuc (MLKL-NLuc) and constitutively expressing the C-terminal fusion protein caspase-8-FKBP^F36V. […] Cell death was assessed using an IncuCyte and Cytotox-Red uptake. N = 3 independent experiments, one representative experiment shown, EB represent mean ± SD.\nDegrader compounds or a DMSO vehicle control were added for 5 h, as stated in the Fig. legends. Cells were detached using Trypsin-EDTA (Merck) and resuspended in cell supernatants containing 10 μg/mL propidium iodide (PI). PI exclusion analysis was performed using an LSR II flow cytometer (Becton Dickinson, NJ) with 10,000 single-cell events per sample. Flow cytometry data were analysed using WEASEL version 2.7 software (Frank Battye)."}, "wild-type HT29 cells": {"tested_on": "wild-type HT29 cells", "test": "Necroptosis assay (PI exclusion, flow cytometry), wild-type HT29 cells, TNF+SM+IDN", "format": "cell-based, human", "conditions": "Unt (no death stimulus); sheet S5F", "summary_of_the_method": "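HT29 cells were pretreated 5 h with 500 nM degrader or DMSO, then stimulated 24 h with TNF (100 ng/mL), Smac mimetic compound A (500 nM–1 µM) and emricasan (IDN, 5 µM). Cell death was scored by flow cytometry as PI uptake (10 μg/mL PI, 10,000 events/sample), N = 3 replicates.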"}, "[5]": {"tested_on": "MLKL^−/−CASP8^−/− HT29 cells expressing MLKL-NLuc and caspase-8-FKBP^F36V", "conditions": "TNF+SM"}, "[6]": {"biological_target": "T1, Halo-EGFP-NanoLuc-FKBP^F36V (H-E-N-F) fusion protein", "format": "cell-based", "design": "expressed in transfected cells; host or cells: immortalized mouse dermal fibroblasts (iMDFs), ubiquitin promoter, constitutive", "conditions": "500 nM"}}, "note": "Several values for one entry are separate records, joined by “and”; a condition that tells them apart may be missing. Identical values can stand only once. Like-named read-outs stand apart in the source and are kept apart here."}
{"smiles": "CCc1cccc(N(CC)C(=O)Cn2c(C(=O)NC3CCC(C(=O)NCCCCCCCC(=O)NCCCCNc4cccc5c4C(=O)N(C4CCC(=O)NC4=O)C5=O)CC3)cc3ccccc32)c1", "note": "(stereo not shown) [NC4]", "values": [{"measurement": "reduced inhibition of NanoLuc enzymatic activity compared to the parent inhibitor (NanoLuc inhibitor 2)", "setting": "[1]", "result": "~ 30 fold"}, {"measurement": "NanoLuc luminescence, Blank corrected (470-80)", "setting": "[2]; 62.5nM, 2h", "result": "4980 and 5006 and 4972"}, {"measurement": "NanoLuc luminescence, Blank corrected (470-80)", "setting": "[2]; 62.5nM, 4h", "result": "5208 and 3005 and 4773 and 4875"}, {"measurement": "NanoLuc luminescence, Blank corrected (470-80)", "setting": "[2]; 62.5nM, 6h", "result": "2838 and 2892 and 3957"}, {"measurement": "NanoLuc luminescence, Blank corrected (470-80)", "setting": "[2]; 62.5nM, 8h", "result": "2020 and 2221 and 2420"}, {"measurement": "NanoLuc luminescence, Blank corrected (470-80)", "setting": "[2]; 62.5nM, 10h", "result": "1449 and 1207 and 1837"}, {"measurement": "NanoLuc luminescence, Blank corrected (470-80)", "setting": "[2]; 250nM, 2h", "result": "1535 and 1072 and 1399"}, {"measurement": "NanoLuc luminescence, Blank corrected (470-80)", "setting": "[2]; 250nM, 4h", "result": "1441 and 855 and 1118"}, {"measurement": "NanoLuc luminescence, Blank corrected (470-80)", "setting": "[2]; 250nM, 6h", "result": "752 and 593 and 657 and 1043"}, {"measurement": "NanoLuc luminescence, Blank corrected (470-80)", "setting": "[2]; 250nM, 8h", "result": "745 and 600 and 575"}, {"measurement": "NanoLuc luminescence, Blank corrected (470-80)", "setting": "[2]; 250nM, 10h", "result": "292 and 341 and 527"}, {"measurement": "NanoLuc luminescence, Blank corrected (470-80)", "setting": "[2]; 500nM, 2h", "result": "894 and 649 and 1055 and 784"}, {"measurement": "NanoLuc luminescence, Blank corrected (470-80)", "setting": "[2]; 500nM, 4h", "result": "690 and 518 and 723"}, {"measurement": "NanoLuc luminescence, Blank corrected (470-80)", "setting": "[2]; 500nM, 6h", "result": "437 and 546 and 398 and 460"}, {"measurement": "NanoLuc luminescence, Blank corrected (470-80)", "setting": "[2]; 500nM, 8h", "result": "261 and 295 and 351"}, {"measurement": "NanoLuc luminescence, Blank corrected (470-80)", "setting": "[2]; 500nM, 10h", "result": "255 and 239 and 173"}, {"measurement": "Blank corrected Raw Data (470-80)", "setting": "[2]; DMSO (control) co-treatment", "result": "1248 and 1289 and 1195 and 929"}, {"measurement": "Blank corrected Raw Data (470-80)", "setting": "[2]; co-treatment with MG132 (10uM)", "result": "3006 and 3126 and 2730 and 2907"}, {"measurement": "degradation of the H-E-N-F substrate protein by Western blot, comparison of NanoTACs", "setting": "[3]; 125-500 nM", "result": "consistently outperforming the first analogue NC1"}, {"measurement": "low concentration triggering degradation of the fusion protein", "setting": "[3]; Western blot", "result": "~ 30 nM"}, {"measurement": "Live cells (%PI negative) after TNF+911+zVAD", "setting": "[4]; 3.9nM", "result": "6.4 and 6.9 and 5.3"}, {"measurement": "Live cells (%PI negative) after TNF+911+zVAD", "setting": "[4]; 7.8nM", "result": "6.6 and 6 and 6.3"}, {"measurement": "Live cells (%PI negative) after TNF+911+zVAD", "setting": "[4]; 31.25nM", "result": "6.5 and 6 and 7.1"}, {"measurement": "Live cells (%PI negative) after TNF+911+zVAD", "setting": "[4]; 62.5nM", "result": "6 and 5.5 and 7.5"}, {"measurement": "Live cells (%PI negative) after TNF+911+zVAD", "setting": "[4]; 250nM", "result": "4.9 and 6.4 and 6.1"}, {"measurement": "Live cells (%PI negative) after TNF+911+zVAD", "setting": "[4]; 500nM", "result": "4 and 4.7 and 6.1"}, {"measurement": "Live cells (%PI negative) after TNF+911+zVAD", "setting": "[4]; 1000nM", "result": "5.9 and 5.2 and 6.1"}, {"measurement": "viable cells (PI exclusion)", "setting": "wild-type HT29 cells", "result": "70.2 and 66.8 and 70.5"}, {"measurement": "Cytotox-Red uptake (cell death), IncuCyte", "setting": "[5]; elapsed 0 h", "result": 176}, {"measurement": "Cytotox-Red uptake (cell death), IncuCyte", "setting": "[5]; elapsed 0.5 h", "result": 196.812}, {"measurement": "Cytotox-Red uptake (cell death), IncuCyte", "setting": "[5]; elapsed 1 h", "result": 269.75}, {"measurement": "Cytotox-Red uptake (cell death), IncuCyte", "setting": "[5]; elapsed 2 h", "result": 726.062}, {"measurement": "Cytotox-Red uptake (cell death), IncuCyte", "setting": "[5]; elapsed 3 h", "result": 1441.19}, {"measurement": "Cytotox-Red uptake (cell death), IncuCyte", "setting": "[5]; elapsed 4 h", "result": 2153.69}, {"measurement": "Cytotox-Red uptake (cell death), IncuCyte", "setting": "[5]; elapsed 5 h", "result": 2734}, {"measurement": "Cytotox-Red uptake (cell death), IncuCyte", "setting": "[5]; elapsed 6 h", "result": 3193.62}, {"measurement": "Cytotox-Red uptake (cell death), IncuCyte", "setting": "[5]; elapsed 6.5 h", "result": 3375.81}, {"measurement": "Cytotox-Red uptake (cell death), IncuCyte", "setting": "[5]; elapsed 7 h", "result": 3569.31}, {"measurement": "Cytotox-Red uptake (cell death), IncuCyte", "setting": "[5]; elapsed 7.5 h", "result": 3696.25}, {"measurement": "Cytotox-Red uptake (cell death), IncuCyte", "setting": "[5]; elapsed 8 h", "result": 3846.56}, {"measurement": "Cytotox-Red uptake (cell death), IncuCyte", "setting": "[5]; elapsed 9 h", "result": 4053}, {"measurement": "Cytotox-Red uptake (cell death), IncuCyte", "setting": "[5]; elapsed 9.5 h", "result": 4125.31}, {"measurement": "Cytotox-Red uptake (cell death), IncuCyte", "setting": "[5]; elapsed 10 h", "result": 4221.25}, {"measurement": "Cytotox-Red uptake (cell death), IncuCyte", "setting": "[5]; elapsed 10.5 h", "result": 4287.44}, {"measurement": "Cytotox-Red uptake (cell death), IncuCyte", "setting": "[5]; elapsed 11 h", "result": 4360}, {"measurement": "Cytotox-Red uptake (cell death), IncuCyte", "setting": "[5]; elapsed 12 h", "result": 4474.25}, {"measurement": "Cytotox-Red uptake (cell death), IncuCyte", "setting": "[5]; elapsed 13 h", "result": 4557.19}, {"measurement": "Cytotox-Red uptake (cell death), IncuCyte", "setting": "[5]; elapsed 13.5 h", "result": 4775.06}, {"measurement": "Cytotox-Red uptake (cell death), IncuCyte", "setting": "[5]; elapsed 14 h", "result": 4760.06}, {"measurement": "Cytotox-Red uptake (cell death), IncuCyte", "setting": "[5]; elapsed 14.5 h", "result": 4770}, {"measurement": "Cytotox-Red uptake (cell death), IncuCyte", "setting": "[5]; elapsed 15 h", "result": 4767.69}, {"measurement": "Cytotox-Red uptake (cell death), IncuCyte", "setting": "[5]; elapsed 16 h", "result": 4884.75}, {"measurement": "Cytotox-Red uptake (cell death), IncuCyte", "setting": "[5]; elapsed 17 h", "result": 4901.56}, {"measurement": "Cytotox-Red uptake (cell death), IncuCyte", "setting": "[5]; elapsed 18 h", "result": 4950.62}, {"measurement": "Cytotox-Red uptake (cell death), IncuCyte", "setting": "[5]; elapsed 19 h", "result": 4959.75}, {"measurement": "Cytotox-Red uptake (cell death), IncuCyte", "setting": "[5]; elapsed 19.5 h", "result": 4920.31}, {"measurement": "time up to which degradation was seen, degrader left in the medium", "setting": "[6]; 5, 24 or 48 h", "result": "up to 24 h"}, {"measurement": "time up to which degradation was maintained, degrader removed at 5 h", "setting": "[6]; 24 or 48 h after removal", "result": "not maintained"}]}
